Source: patent US20140050773A1, “COMPOUND COMPRISING ALPHA-MSH FOR USE IN ENDODONTIC REGENERATION” (Universite De Strasbourg, priority 2010, published 2014)

How the values were obtained:
pulp fibroblasts [1] = assay: Intracellular cAMP accumulation in pulp fibroblasts; type: cell-based, human; details: 30 min; forskolin 3 μM, MTII 10 μg·mL-1; basal level 239±36 fmol/well
Method: Pulp fibroblasts (1×10^5) were plated in 24-well-plates in D-MEM® containing 1% antimicotic solution and 10% FBS (Life Technologies, Paisley, UK). The cultures were incubated at 37° C. in a humidified atmosphere of 5% CO2, and allowed to adhere for 2 h. Cells were then washed and incubated with […] Forskolin (positive control), the MC3/4R agonist MTII (10 μg·mL^−1), the MC1R agonist MS05 (10 μg·mL^−1), and PGA-α-MSH (10-300 μg·mL^−1) in the presence of 1 mM isobutylmethylxantine in serum-free medium and incubated for 30 min at 37° C. in a humidified atmosphere of 5% CO2. A non-treated group incubated in serum-free medium alone served as a negative control. Cell supernatants were then removed and the cells were lysed. Intracellular cAMP was quantified using a commercially available enzyme immunoassay kit and a standard curve constructed with 0-3200 fmol μg·mL-1 cAMP (Amersham Bioscience, Little Chalfont, U.K).

pulp fibroblasts [2] = assay: Cell proliferation by the acid phosphatase method; type: cell-based, human; details: in solution, FIG. 4 lower part
Method: (§1) Cell viability was determined by trypan blue exclusion. Cell proliferation was measured by the acid phosphatase method. Briefly, cells were washed with […] PBS. The buffer added to each well contains 0.1 M sodium acetate (pH 5.5), 0.1% of X-100 Triton and 10 mM of p-nitrophenyl phosphate [pNPP] (Sigma, St Quentin, France). After a 3 h-incubation at 37° C. with 5% 002 the reaction was stopped by the addition of 1 N sodium hydroxide and the absorbance was measured by spectrophotometer at 405 nm (Labsystems, iEMS Reader MF, Gibco). Cell viability and proliferation were measured at 24 and 96 hours. Cell spreading and adhesion were observed by confocal microscopy. AlamarBlue® (Serotec) was used to assess cellular proliferation. The AlamarBlue test is a non-toxic, water-soluble, calorimetric redox indicator that changes color in response to cell metabolism. […] After 6 hours, […] of incubation media was transferred to 96-well plates and measured at 590 nm and 630 nm in order to determine the percentage of AlamarBlue reduction. The ability of free α-MSH and PGA-α-MSH to promote proliferation and/or adhesion of fibroblasts was also determined. Cell viability was determined by trypan blue exclusion and the proliferation was measured by the acidic phosphatase method (FIG. 4).

pulp fibroblasts [3] = type: cell-based, human
Method: as §1

[4] = tested on: LPS-stimulated pulp fibroblasts; assay: TNF-α, IL-8 and IL-10 production by LPS-stimulated pulp fibroblasts (ELISA); type: cell-based, human
Method: Human pulp fibroblasts were obtained from human third molar germ tissue extracted for orthodontic reasons (Dental School, Strasbourg). These tissues were used with the patient's informed consent and approval by the Research Ethics Committee. Human pulp fibroblasts and mouse embryo fibroblasts (NIH 3T3, a gift of IGBMC, Strasbourg, France) were cultured in Dulbecco's modified Eagle's medium (D-MEM®) containing 1% antimicotic solution and 10% FBS (Life Technologies, Paisley, UK). The cultures were incubated at 37° C. in a humidified atmosphere of 5% CO2. When the cells reached sub-confluence, they were harvested with trypsin and sub-cultured. The fibroblast cultures used for all experiments were from passages three to six. Fibroblasts (5×10^5) were seeded in 24-well plates (Nunc, CML, Nemours, France) and incubated with LPS (10 ng·mL^−1) from E, coli in the presence or absence of free α-MSH or PGA-Q-MSH coupled peptides, in D-MEM® without FBS. At different time-points of incubation, cells were centrifuged and the levels of TNF-α, IL-10 or IL-8 in cell-free supernatants were determined using commercially available ELISA kits (Endogen, Woburn, Mass.). Studies of the effects of multilayer films consisting of PGA-α-MSH coupled peptides were conducted by seeding 5×10^5 cells directly onto the film in a 24-well plate as previously described (Chluba et al. Biomacromolecules. 2001, 2:800-805). All experiments were performed at least three times. […]

pulp fibroblasts [5] = assay: Pulp fibroblast adhesion by confocal microscopy; type: cell-based, human; details: 2 days of culture; FIG. 5
Method: Cell spreading and adhesion were observed by confocal microscopy. […] In this study, 5×10^4 pulp fibroblasts were seeded on the top of LbL-coated 14 mm-diameter coverslips (n=3) placed on 24-well plates. […] After 2 days of proliferation, cells were fixed with 4% PFA during 1 hour, permeabilized with 0.1% Triton X-100 for 1 hour and incubated for 20 min with Alexa Fluor 546-conjugated phalloidin (Molecular Probes) for F-actin labeling and 5 min with 200 nM DAPI (Sigma) for nuclear staining. Cells were mounted on microscope slides using Vectashield (Vector) and imaged by confocal microscopy (Zeiss, LSM 510). CLSM observations were documented with a Zeiss LSM 510 microscope using a ×40/1.4 oil immersion objective at 0.4 μm z-section intervals. FITC fluorescence was detected after excitation at 488 nm with a cutoff dichroic mirror 488 nm and an emission band-pass filter 505-530 nm (green). All experiments were performed with cells in solution.

[6] = target: MCR receptors (melanocortin receptors) on human pulp fibroblasts; assay: cell-based or functional assay

Compound `C=C[C@@]1(C)CC(=O)[C@]2(O)[C@@]3(C)[C@@H](O)CCC(C)(C)[C@@H]3[C@H](O)[C@H](OC(C)=O)[C@@]2(C)O1` [forskolin, Forskolin] has a cAMP concentration (pulp fibroblasts [1]) of 3367±242 fmol/well.

In the case of “HS—CH2CH2-Ser-Tyr-Ser-Nle-Glu-His-D-Phe-Arg-Trp-Gly-Lys-Pro-Val-COOH [α-MSH]”, the “proliferation of pulp fibroblasts” value (pulp fibroblasts [2]) is reported as “inhibits the proliferation”, the “proliferation of pulp fibroblasts” value (pulp fibroblasts [2]; listed as free α-MSH) is reported as “without effect” and the “viability of pulp fibroblasts” value (pulp fibroblasts [3]) is reported as “not the viability”. For the same compound, the “LPS-induced IL-8 secretion” value ([4]; 100 μg·mL^−1, 6 h time period) was “no inhibition”, the “IL-10 production by LPS-stimulated pulp fibroblasts” value ([4]; LPS 10 ng mL^−1, 100 μg·mL-1 peptide, late (4 hours)) was “induced significant levels” and the “amount of IL-8 produced (LPS-stimulated)” value ([4]; concentration increased to 400 μg·mL-1, data not shown) was “did not change”. The “LPS induced TNF-α secretion” value ([4]; early timepoints (20 min to 2 h), LPS 10 ng mL^−1, 100 μg·mL-1 peptide) was “significantly inhibited”, the “LPS induced TNF-α secretion” value ([4]; later time-points (4-6 h), LPS 10 ng mL^−1, 100 μg·mL-1 peptide) was “this effect was lost” and the “adhesion of pulp fibroblasts” value (pulp fibroblasts [5]) was “without effect”.

In the case of MTII (peptide), the intracellular cAMP accumulation in pulp fibroblasts, 30 min [6] is reported as 459 fmol/well.

Compound MTII has a cAMP concentration (pulp fibroblasts [1]) of 459±14 fmol/well.
